Results: PMC11392244, “Characterization of a unique catechol-O-methyltransferase as a molecular drug target in parasitic filarial nematodes” (PLOS Neglected Tropical Diseases, 2024)
Where “and” joins values, the source holds several entries; their conditions need not be identical. Equal entries are not always repeated. Where two headings read alike, the source gives them in different places.

How the values were obtained:
DiMT protein [1] = assay: DiMT enzyme activity, kinetics and substrate specificity (MTase-Glo methyltransferase assay); type: biochemical, Dirofilaria immitis; details: for DiMT catalytic activity for methylation of the substrate: SAM as co-substrate; for Vmax / Km: Michaelis-Menten fit; for Km: other substrate fixed
DiMT protein [2] = type: biochemical, Dirofilaria immitis
D. immitis microfilariae = assay: In vitro efficacy against live D. immitis microfilariae (motility, completely immotile %); type: cell-based, Dirofilaria immitis; details: for Completely Immotile Microfilariae (%): single replicate
[3] = DiMT 90 ng/μL, SAM 40 μM, substrate 300 μM

## NCCOP(=O)(O)O [Phosphoethanolamine]
DiMT protein [1]; [3]
  Mean RLU: -1783.7 RLU
DiMT protein [1]
  DiMT catalytic activity for methylation of the substrate: did not depict catalytic activity

## NCCc1ccc(O)c(O)c1 [Dopamine]
DiMT protein [1]; DiMT 90 ng/μL
  Kcat (S^-1): 241.28 S^-1
  Vmax: 1549.0 nmol/µg/min and 1549.0 ± 21.4 nmol/µg/min
  Km: 106 ± 6.2 µM
DiMT protein [1]; [3]
  Mean RLU: 5806.3 RLU
DiMT protein [1]
  DiMT catalytic activity for methylation of the substrate: readily catalyzed the methylation
DiMT protein [1]; dopamine 50 uM, SAM (30 µM)
  Mean RLU: 114.3 RLU
  RLU (single experiments): 106.0 RLU and 141.0 RLU and 96.0 RLU
DiMT protein [1]; dopamine 100 uM, SAM (30 µM)
  Mean RLU: 391.3 RLU
DiMT protein [1]; dopamine 200 uM, SAM (30 µM)
  Mean RLU: 1186.3 RLU
  RLU (single experiments): 958.0 RLU and 965.0 RLU and 1636.0 RLU
DiMT protein [1]; dopamine 300 uM, SAM (30 µM)
  Mean RLU: 2161.3 RLU
  RLU (single experiments): 1950.0 RLU and 1857.0 RLU and 2677.0 RLU
DiMT protein [1]; dopamine 400 uM, SAM (30 µM)
  Mean RLU: 2830.0 RLU
  RLU (single experiments): 2877.0 RLU and 2606.0 RLU and 3007.0 RLU
DiMT protein [1]; dopamine 500 uM, SAM (30 µM)
  Mean RLU: 3483.0 RLU
  RLU (single experiments): 2900.0 RLU and 4023.0 RLU and 3526.0 RLU

## NCCc1c[nH]cn1 [Histamine]
DiMT protein [1]; [3]
  Mean RLU: 167.3 RLU
DiMT protein [1]
  DiMT catalytic activity for methylation of the substrate: did not depict catalytic activity

## OCCS [2-Mercaptoethanol]
DiMT protein [1]; [3]
  Mean RLU: -2592.7 RLU
DiMT protein [1]
  DiMT catalytic activity for methylation of the substrate: did not depict catalytic activity

## NCC(O)c1ccc(O)cc1 (stereo not shown) [Octopamine]
DiMT protein [1]
  fold lower DiMT activity than that of dopamine: 3 fold
  DiMT catalytic activity for methylation of the substrate: modest activity
DiMT protein [1]; [3]
  Mean RLU: 1996.7 RLU

## CO[C@H]1/C=C/O[C@@]2(C)Oc3c(C)c(O)c4c(O)c(cc(O)c4c3C2=O)NC(=O)/C(C)=C\C=C\[C@H](C)[C@H](O)[C@@H](C)[C@@H](O)[C@@H](C)[C@H](OC(C)=O)[C@@H]1C [NSC133100]
DiMT protein [2]; 100 µM
  Mean Percent Inhibition: 24.8% and 27.0% and 28.5%
  Mean Percent Inhibition, Average: 26.8%
DiMT protein [2]; 200 µM
  Mean Percent Inhibition: 32.0% and 34.7% and 35.8%
  Mean Percent Inhibition, Average: 34.1%
DiMT protein [2]; 300 µM
  Mean Percent Inhibition: 33.9% and 41.0% and 42.1%
  Mean Percent Inhibition, Average: 39.0%
DiMT protein [2]; 400 µM
  Mean Percent Inhibition: 40.4% and 46.0%
  Mean Percent Inhibition, Average: 44.1%
DiMT protein [2]; 500 µM
  Mean Percent Inhibition: 51.5% and 54.8% and 55.7%
  Mean Percent Inhibition, Average: 54.0%
DiMT protein [2]; read-out: IC 50 (μM ± SEM)
  IC50: 496.9 ± 2.7 µM
D. immitis microfilariae; 15 µM, 0 h
  Mean completely Immotile (%): 0%
  Completely Immotile Microfilariae (%): 0%
D. immitis microfilariae; 15 µM, 24 h
  Mean completely Immotile (%): 1%
  Completely Immotile Microfilariae (%): 0% and 1% and 2%
D. immitis microfilariae; 15 µM, 48 h
  Mean completely Immotile (%): 2.67%
  Completely Immotile Microfilariae (%): 1% and 3% and 4%
D. immitis microfilariae; 15 µM, 72 h
  Mean completely Immotile (%): 4.67%
  Completely Immotile Microfilariae (%): 3% and 5% and 6%
D. immitis microfilariae; 15 µM, 96 h
  Mean completely Immotile (%): 6.67%
  Completely Immotile Microfilariae (%): 5% and 7% and 8%
D. immitis microfilariae; 15 µM, 120 h
  Mean completely Immotile (%): 9.67%
  Completely Immotile Microfilariae (%): 7% and 10% and 12%
D. immitis microfilariae; 25 µM, 0 h
  Mean completely Immotile (%): 0%
  Completely Immotile Microfilariae (%): 0%
D. immitis microfilariae; 25 µM, 24 h
  Mean completely Immotile (%): 3%
  Completely Immotile Microfilariae (%): 2% and 3% and 4%
D. immitis microfilariae; 25 µM, 48 h
  Mean completely Immotile (%): 4.67%
  Completely Immotile Microfilariae (%): 3% and 5% and 6%
D. immitis microfilariae; 25 µM, 72 h
  Mean completely Immotile (%): 6.67%
  Completely Immotile Microfilariae (%): 5% and 7% and 8%
D. immitis microfilariae; 25 µM, 96 h
  Mean completely Immotile (%): 9.33%
  Completely Immotile Microfilariae (%): 7% and 10% and 11%
D. immitis microfilariae; 25 µM, 120 h
  Mean completely Immotile (%): 13.67%
  Completely Immotile Microfilariae (%): 10% and 16% and 15%
D. immitis microfilariae; 50 µM, 0 h
  Mean completely Immotile (%): 0%
  Completely Immotile Microfilariae (%): 0%
D. immitis microfilariae; 50 µM, 24 h
  Mean completely Immotile (%): 5%
  Completely Immotile Microfilariae (%): 4% and 5% and 6%
D. immitis microfilariae; 50 µM, 48 h
  Mean completely Immotile (%): 8%
  Completely Immotile Microfilariae (%): 7% and 8% and 9%
D. immitis microfilariae; 50 µM, 72 h
  Mean completely Immotile (%): 10.67%
  Completely Immotile Microfilariae (%): 9% and 11% and 12%
D. immitis microfilariae; 50 µM, 96 h
  Mean completely Immotile (%): 12.67%
  Completely Immotile Microfilariae (%): 11% and 13% and 14%
D. immitis microfilariae; 50 µM, 120 h
  Mean completely Immotile (%): 17%
  Completely Immotile Microfilariae (%): 14% and 19% and 18%
D. immitis microfilariae; 75 µM, 0 h
  Mean completely Immotile (%): 0%
  Completely Immotile Microfilariae (%): 0%
D. immitis microfilariae; 75 µM, 24 h
  Mean completely Immotile (%): 6.33%
  Completely Immotile Microfilariae (%): 5% and 6% and 8%
D. immitis microfilariae; 75 µM, 48 h
  Mean completely Immotile (%): 10%
  Completely Immotile Microfilariae (%): 9% and 10% and 11%
D. immitis microfilariae; 75 µM, 72 h
  Mean completely Immotile (%): 13%
  Completely Immotile Microfilariae (%): 12% and 13% and 14%
D. immitis microfilariae; 75 µM, 96 h
  Mean completely Immotile (%): 15.67%
  Completely Immotile Microfilariae (%): 14% and 16% and 17%
D. immitis microfilariae; 75 µM, 120 h
  Mean completely Immotile (%): 20.67%
  Completely Immotile Microfilariae (%): 17% and 23% and 22%
D. immitis microfilariae; up to 120 h of culture
  effect on microfilariae: insignificant effect

## NCCc1ccc(O)cc1 [Tyramine]
DiMT protein [1]
  fold lower DiMT activity than that of dopamine: 6 fold
  DiMT catalytic activity for methylation of the substrate: modest activity
DiMT protein [1]; [3]
  Mean RLU: 1001.7 RLU

## C[S+](CC[C@H](N)C(=O)[O-])C[C@H]1O[C@@H](n2cnc3c(N)ncnc32)[C@H](O)[C@@H]1O (stereo partly drawn) [SAM, S-adenosyl-L-methionine]
DiMT protein [1]; DiMT 90 ng/μL
  Kcat (S^-1): 42.94 S^-1
  Vmax: 275.7 ± 3.9 nmol/µg/min
  Km: 104 ± 2.7 µM
DiMT protein [1]; SAM 10 µM, dopamine 360 µM
  Mean RLU: 756.5 RLU
  RLU (single experiments): 914.5 RLU and 723.5 RLU and 631.5 RLU
DiMT protein [1]; SAM 20 µM, dopamine 360 µM
  Mean RLU: 2042.5 RLU
  RLU (single experiments): 2199.5 RLU and 2145.5 RLU and 1782.5 RLU
DiMT protein [1]; SAM 30 µM, dopamine 360 µM
  Mean RLU: 3090.5 RLU
  RLU (single experiments): 2251.5 RLU and 2688.5 RLU and 4331.5 RLU
DiMT protein [1]; SAM 40 µM, dopamine 360 µM
  Mean RLU: 4397.8 RLU
  RLU (single experiments): 4459.5 RLU and 4406.5 RLU and 4327.5 RLU
DiMT protein [1]; SAM 50 µM, dopamine 360 µM
  Mean RLU: 5027.5 RLU
  RLU (single experiments): 4688.5 RLU and 5346.5 RLU and 5047.5 RLU
DiMT protein [1]; SAM 60 µM, dopamine 360 µM
  Mean RLU: 4815.8 RLU
  RLU (single experiments): 4881.5 RLU and 5382.5 RLU and 4183.5 RLU
